The values that follow come from ChEMBL document CHEMBL4602729, “O-Alkyl Hydroxamates Display Potent and Selective Antileishmanial Activity” (J Med Chem, 2020).

As usually defined, the IC50 is the midpoint of a concentration-inhibition curve. In general, CC50 refers to the concentration at which the toxic effect on the cells reaches its halfway point.

In one series the test system is Leishmania tropica. Put plainly: Antileishmanial activity against Leishmania tropica MON-102 intracellular amastigotes. It counts as functional, organism-based.
Series [1] is described as follows: Selectivity index, ratio of CC50 for mouse L929 cells to IC50 for Leishmania donovani MON-2 intracellular amastigotes. It counts as toxicity, cell-based.
In a further series the test system is Leishmania donovani. Kind of series: Antileishmanial activity against Leishmania donovani MON-2 intracellular amastigotes. It counts as functional, organism-based.
Series [2] is described as follows: Selectivity index, ratio of CC50 for mouse L929 cells to IC50 for Leishmania infantum MON-1 intracellular amastigotes infected in Swiss mouse BMDM. It counts as toxicity, cell-based.
Series [3] can be described thus: Selectivity index, ratio of CC50 for mouse L929 cells to IC50 for Leishmania major MON-4 intracellular amastigotes. It counts as toxicity, cell-based.
Another series relates to Leishmania major. Kind of series: Antileishmanial activity against Leishmania major MON-4 intracellular amastigotes. It counts as functional, organism-based.
Series [4] can be described thus: Selectivity index, ratio of CC50 for mouse L929 cells to IC50 for Leishmania tropica MON-102 intracellular amastigotes. It counts as toxicity, cell-based.
For series [5], the system named is Leishmania infantum. Put plainly: Antileishmanial activity against Leishmania infantum MON-1 intracellular amastigotes infected in Swiss mouse BMDM measured after 48 hrs by Giemsa staining based optical microscopic analysis. It counts as functional, organism-based.
Series [6] can be described thus: (§1) Cytotoxicity against Swiss mouse BMDM assessed as reduction in cell viability measured after 72 hrs by tryphan blue assay. It counts as cell-based. The settings on record: Swiss, BMDM.
Another series relates to L929. Put plainly: (§2) Cytotoxicity against mouse L929 cells assessed as reduction in cell viability measured after 72 hrs by tryphan blue assay. It counts as cell-based. The settings on record: l929, 72 h.
The subject of another series is BMDM. The series is described as §1. It counts as cell-based. The settings on record: bmdm, 72 h.
Series [7] in a line: Toxicity in BALB/c mouse infected with Leishmania infantum MON-1 promastigotes assessed as change in AST level at 104 mg Sbv/kg, ip administered daily for 14 days starting from 28 days post infection using PLGA nanoparticle incorporated compound. It counts as organism-based. Particulars: in vivo.
A short description of series [8]: as §2. It counts as cell-based. Particulars: L929 cells.
The test system of series [9] is Leishmania infantum. Put plainly: Antileishmanial activity against Leishmania infantum MON-1 promastigotes assessed as reduction in parasite viability at 100 uM measured after 48 hrs by MTT assay. It counts as functional, organism-based. In general terms: Tetrazolium assays rely on reduction of a dye to a coloured formazan, in cell work by metabolically active cells.

Series [10] concerns Leishmania infantum. Kind of series: Antileishmanial activity against Leishmania infantum MON-1 promastigotes infected in BALB/c mouse assessed as reduction in liver parasite load at 104 mg Sbv/kg, ip administered daily for 14 days starting from 28 days post infection measured post last dose by Taqman qRT-PCR analysis relative to control. It counts as functional, organism-based. On the set-up: scale not given: the % may be the effect or the level left. A general note: Real-time PCR tracks product formation cycle by cycle.

The test system of series [11] is Leishmania infantum. Kind of series: Antileishmanial activity against Leishmania infantum MON-1 promastigotes infected in BALB/c mouse assessed as reduction in spleen parasite load at 104 mg Sbv/kg, ip administered daily for 14 days starting from 28 days post infection measured post last dose by Taqman qRT-PCR analysis relative to control. Also noted: scale not given: the % may be the effect or the level left. It counts as functional, organism-based.

[12] abbreviates: Leishmania infantum, MON-1, BMDM, 48 h.

The source made the active and inactive calls. The rule behind the calls is not given here.

`N=C(N)c1ccc(OCCCCCOc2ccc(C(=N)N)cc2)cc1`: the IC50 amounted to 0.62 µM in the series with Leishmania tropica (Leishmania tropica, MON-102); 0.88 µM in the series on Leishmania donovani (Leishmania donovani, MON-2); 0.96 µM in the series on Leishmania major (Leishmania major, MON-4); 1.5 µM with Leishmania infantum [5] (setting [12]). For the same compound, the selectivity ratio in series [1] (read-out: Ratio CC50/IC50) is 7; in [2] (read-out: Ratio CC50/IC50) it was 4; in series [3] (read-out: Ratio CC50/IC50) it was 6; in [4] (read-out: Ratio CC50/IC50) it was 10. Besides, in series [6], the CC50 at 72 h lay within 5 to 20 µM.

`Cc1ccc(C(ONC(=O)CCCCCCC(=O)Nc2ccccc2)(c2ccccc2)c2ccccc2)cc1` registered an IC50 in the series with Leishmania infantum [5] (setting [12]) of 69.1 µM. The CC50 at 72 h in series [6] is below 100 µM.

For the compound “MEGLUMINE ANTIMONATE [listing 1 of 2 here]”, the IC50 with Leishmania tropica stood at 123 µM; in the series on Leishmania donovani it was 96.4 µM; in the series on Leishmania major, 101 µM; in the series on Leishmania infantum [5] it was 144 µM. Also, the CC50 with L929 is 273 µM; in the series with BMDM, 200 to 500 µM. The “Ratio CC50/IC50” value turned out to be 3 in series [1], 2 in [2], 3 in series [3] and 2 in [4]. For the same compound, in [7], the Activity entry is listed as “Toxic”.

Turning to `O=C(CCCCCCN1C(=O)c2ccc(C#Cc3ccccc3)cc2S1(=O)=O)NOC(c1ccccc1)(c1ccccc1)c1ccccc1`, in the series with Leishmania infantum [5] (setting [12]), the IC50 worked out at 3.67 µM. In addition, the CC50 at 72 h in series [6] was above 100 µM.

On to `COc1ccc(C(ONC(=O)CCCCCCC(=O)Nc2ccccc2)(c2ccccc2)c2ccc(OC)cc2)cc1`, for which the CC50 at 72 h in series [8] and in [6] was below 1 µM in each case.

In turn, `O=C(CCCCCCC(=O)Nc1ccccc1)NOC(c1ccccc1)(c1ccccc1)c1ccccc1Cl` came in with an IC50 in the series with Leishmania infantum [5] (setting [12]) of 74.9 µM. The CC50 at 72 h in series [6] is above 100 µM.

Consider `O=C(CCCCCCC(=O)Nc1ccccc1)NO` [VORINOSTAT], for which the CC50 at 72 h in series [6] was in the range of 5 to 20 µM.

For `O=C(CCCCCCC(=O)Nc1ccccc1)NOCc1ccccc1`, the cytotoxic concentration (CC50) at 72 h in [8] and in series [6] was above 100 µM in each case. Also, the outcome in the series on Leishmania infantum [9] was inactive. The IC50 with Leishmania infantum [5] (setting [12]) amounted to 0.44 µM.

As for “MEGLUMINE ANTIMONATE [listing 2 of 2 here]”, the Activity was 83% in the series on Leishmania infantum [10] and 33% in the series on Leishmania infantum [11].

Take `CCCCc1ccc(C(=O)NCC(=O)NOC(c2ccccc2)(c2ccccc2)c2ccccc2)cc1`: the CC50 at 72 h in [8] and in series [6] was above 100 µM throughout. Moreover, in the series with Leishmania infantum [9], the result was inactive. For the same compound, the IC50 with Leishmania infantum [5] (setting [12]) came to 1.05 µM.
